{"source": "patent US20020018808A1", "about": "“Vaccines against sterols” (priority 1990, published 2002)", "key": {"[1]": {"test": "ELISA of antisera from mice immunized with sterol-containing liposomes", "format": "in vivo, BALB/c mice", "description": "Accordingly, the following study is designed to assess the immunogenicity of different cholesterol or sterol analogs for use in a vaccine to prevent hyper-cholesterolemia. Briefly summarized, several sterols such as cholesterol, vitamin D2, cholesteryl oleate, cholesteryl myristate, 4-cholesten-3-one, and phosphatidylcholesterol (17β-Linkage) and (3β-Linkage), are incorporated into liposomes containing DPMC (1.8), DMPG (0.2), Chol (1.5) (mol/mol) and lipid A (25 to 200 μg/mol, preferably 25 μg/mol phospholipid) so that the phospholipid concentration remains constant. These liposomes are inoculated into BALB/c mice i.p. at day 0 and day 14. Mice are bled at day 14 and day 21 and antibodies specific for the antigen are assessed by ELISA using the antigen itself or crystalline cholesterol.\nMultilamellar vesicles (“MLV”) are produced by aliquotting DMPC:DMPG:Cholesterol, 9:1:7.5 (mol/mol), and lipid A at 25 to 200 μg/Imol phospholipid into a round bottom flask. The mixture is rotary evaporated, desiccated, and hydrated in sterile, deionized water. Lipids are lyophilized and reconstituted in PBS to 10 mM with respect to phospholipids and assayed for total phosphorous.\nMale BALB/c mice, 6-8 weeks old, are bled and then immunized with 0.1 ml liposomes containing 1 μmol total phospholipid and 25-200 μg monophosphoryl lipid A ip. At 14 day intervals, mice are bled and sera collected. […]"}, "[2]": {"test": "Complement-dependent immune lysis assay of antisera (glucose release from liposomes)", "set-up": "species or system BALB/c mice", "description": "This assay measures antibody-mediated, complement-dependent release of encapsulated glucose from liposomes. Released glucose is measured spectrophotometrically using a Tris-buffered assay reagent containing hexokinase, glucose-6-phosphate dehydrogenase, ATP, and NADP. This particular assay is a measurement of antibody functional activity, rather than particle (antibody) detection.\nIn addition, the antisera from mice vaccinated with phosphatidylcholesterol could detect cholesterol present in liposomes containing 43% cholesterol as well as 71% cholesterol, and were equally as active against liposomes containing phosphatidylcholesterol in a complement-dependent immune lysis assay. […] In the above antibody-dependent immune lysis assays, a release greater than 5% indicates a positive reaction.\nThe test liposomes contained or lacked 5 mol % phosphatidylcholesterol. The antisera were tested using a complement-dependent immune lysis assay, wherein a release greater than 5% indicated a positive reaction."}}, "data": [{"smiles": "CC(C)CCC[C@@H](C)[C@H]1CC[C@H]2[C@@H]3CC=C4C[C@@H](O)CC[C@]4(C)[C@H]3CC[C@]12C", "note": "[cholesterol]", "values": [{"measurement": "Antibody isotype induced", "setting": "[1]; mice, detected by ELISA (FIG. 8)", "value": "induce primarily IgM"}]}, {"smiles": "CCCCCCCCCCCCCC(=O)OCC(COP(=O)(O)OCCNC(=O)[C@H]1CC[C@H]2[C@@H]3CC=C4C[C@@H](O)CC[C@]4(C)[C@H]3CC[C@]12C)OC(=O)CCCCCCCCCCCCC", "note": "(stereo partly drawn) [phosphatidylcholesterol (17β-Linkage), N-(5-Androsten-3β-OL-17β-amido) dimyristoylphosphatidylethanolamine]", "values": [{"measurement": "Reactivity of generated antibody", "setting": "[1]; compound of Example VI in liposomes", "value": "IgG antibody that reacts with crystalline cholesterol, 43% cholesterol liposomes, and 71% liposomes"}, {"measurement": "Glucose release of test liposomes", "setting": "[2]; immune lysis assay, liposomes composed of 5% phosphatidylcholesterol (17β-Linkage)", "value": "glucose release equivalent to liposomes containing 43% and 71% cholesterol"}, {"measurement": "Liposome integrity in antibody-mediated immune lysis assay", "setting": "[2]; more than 5 mol % phosphatidylcholesterol in liposomes containing 43 mol % cholesterol", "value": "leaky liposomes"}]}]}
